Test results taken from patent US9180077B2, “Green tea extracts of improved bioavailability” (Nestec S.A., priority 2009, dated 2015).

Assay: Stability study of green tea catechins: incubation in Na-Pi buffer pH 7.4 at 37° C., HPLC
Format: physicochemical
Protocol: Samples were prepared according to the following method. Briefly, each sample was treated with acetic acid (30% final concentration) for 30 min and then added to an aqueous solution containing 10% acetonitrile, 0.5 mg/mL EDTA and 0.5 mg/mL ascorbic acid. The mix was then centrifuged for 30 min at 14′000×g and the supernatant analysed by HPLC. Following this protocol allows the complete recovery of all catechins.
Green tea catechins were determined by reverse phase HPLC using an analytical method based on the ISO FDIS 14502-2 method. The HPLC system used was a 1100 series Hewlett-Packard (Geneva, Switzerland) model equipped with an ultraviolet-visible photodiode array and a fluorimetric detector. Catechins were detected by UV absorption at 280.4 nm except for catechins and epicatechin that were detected by fluorescence (excitation: 280 nm; emission: 310 nm). Samples (10 μl) were separated on a Zorbax RX—C18 column (4.6 mm internal diameter×250 mm length, Agilent technologies). Flow rate was 1.0 mL/min.
Sample concentration of green tea catechins (C, EC, EgC, EgCg, ECg) were calculated based on the corresponding calibration curve and reported as % of the initial value (sample at t0). Since caffeine, endogenous to green tea samples, is stable under the selected assay conditions, it was used as internal standard for all calculations. […]

protection of catechins (0.2 mM, at least for 2 h of incubation, data not shown): a certain protection
vitamin C concentration at which the plateau of stabilisation is reached (stabilisation during 6 h, GTE 0.1%, pH 7.4, 37° C): 2.5 mM
SMILES: O=C1O[C@H]([C@@H](O)CO)C(O)=C1O [vitamin C, ascorbic acid]
